Measurements as given in US20240336606A1 (Suzhou Zelgen Biopharmaceuticals Co., Ltd., priority 2020, published 2024).

Columns and labels:
[1] = biological target: T1, binding of KRAS^G12C to SOS1 (Homo sapiens, UniProt Q07889); test: Inhibition of the binding of KRAS^G12C to SOS1; conditions: Tag1-SOS1 / Tag2-KRAS^G12C, 2 h incubation at room temperature; read-out: IC50 (nM), inhibitory activity on the binding of KRAS^G12C to SOS1
T1 construct: Tag1 (unspecified)
T1 sequence (Q07889 1-1333): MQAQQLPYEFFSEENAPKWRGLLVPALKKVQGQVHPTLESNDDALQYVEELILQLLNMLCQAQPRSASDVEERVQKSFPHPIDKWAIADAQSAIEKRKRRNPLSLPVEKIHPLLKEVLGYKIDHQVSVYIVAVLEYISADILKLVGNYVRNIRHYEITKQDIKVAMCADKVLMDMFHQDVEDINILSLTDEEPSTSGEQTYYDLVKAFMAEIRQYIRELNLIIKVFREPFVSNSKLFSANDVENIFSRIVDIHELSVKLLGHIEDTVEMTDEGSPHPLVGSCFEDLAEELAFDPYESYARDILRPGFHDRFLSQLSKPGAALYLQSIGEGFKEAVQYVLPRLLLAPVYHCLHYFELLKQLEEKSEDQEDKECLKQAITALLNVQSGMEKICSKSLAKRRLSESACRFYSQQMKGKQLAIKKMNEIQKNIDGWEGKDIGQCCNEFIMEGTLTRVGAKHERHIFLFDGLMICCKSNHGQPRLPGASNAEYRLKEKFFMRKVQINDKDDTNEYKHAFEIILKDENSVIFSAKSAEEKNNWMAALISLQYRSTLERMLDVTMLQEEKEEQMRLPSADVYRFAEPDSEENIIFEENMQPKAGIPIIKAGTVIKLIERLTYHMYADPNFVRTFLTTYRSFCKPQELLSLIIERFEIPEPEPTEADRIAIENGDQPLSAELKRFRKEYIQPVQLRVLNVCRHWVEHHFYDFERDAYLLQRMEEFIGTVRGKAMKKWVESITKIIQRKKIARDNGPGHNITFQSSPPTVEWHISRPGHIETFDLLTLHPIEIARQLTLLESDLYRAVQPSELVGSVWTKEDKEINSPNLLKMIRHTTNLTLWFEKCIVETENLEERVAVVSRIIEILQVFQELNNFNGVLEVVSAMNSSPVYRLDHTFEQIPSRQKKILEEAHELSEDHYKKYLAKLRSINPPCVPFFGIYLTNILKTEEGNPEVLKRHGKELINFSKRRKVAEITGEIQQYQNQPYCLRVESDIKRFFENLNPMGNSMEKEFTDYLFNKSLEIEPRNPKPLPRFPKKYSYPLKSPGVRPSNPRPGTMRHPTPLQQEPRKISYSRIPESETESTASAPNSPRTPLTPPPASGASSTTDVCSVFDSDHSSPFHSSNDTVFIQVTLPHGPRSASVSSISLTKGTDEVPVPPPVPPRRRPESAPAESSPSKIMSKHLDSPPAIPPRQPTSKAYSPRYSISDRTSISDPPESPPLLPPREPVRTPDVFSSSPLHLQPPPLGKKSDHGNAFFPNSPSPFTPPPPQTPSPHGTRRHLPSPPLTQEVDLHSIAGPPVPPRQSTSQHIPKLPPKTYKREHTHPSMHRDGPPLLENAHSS
How it was run: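 Tag1-SOS1 and Tag2-KRAS^G12C mixed with serially diluted compound (final 0.25% DMSO), then anti-Tag1-Tb3+ and anti-Tag2-XL665 added for 2 h at room temperature. IC50 from curve fit of the TR-FRET signal.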

[2] = system: H358 cells; test: Inhibition of H358 cell proliferation (CellTiter-Glo 3D, 7 days); format: cell-based; conditions: Homo sapiens, 168 h, NCI-H358, 7 days, read-out: IC50 (nM), inhibitory activity on H358 cell proliferation
Method: • (a) The cells were thawed in T75 cell culture flasks:
• (b) When 80-90% cell confluence was achieved, the cells were passaged.
The diluted test compounds were added to a 384-well cell culture plate using a nanoliter pipetting system, and duplicate wells were set. An equal volume of medium was added to the positive control group; an equal volume of DMSO was added to the negative control group. The plate was centrifuged at 1000 rpm at room temperature for 1 min.
The cells were inoculated into a) 384-well culture plate, an equal volume of cells was added to the negative control group, and only an equal volume of medium was added to the positive control group. The plate was centrifuged at 1000 rpm at room temperature for 1 min. The final concentration of DMSO in the final compounds was 0.5%. The plate was incubated in a thermostatic incubator at 37° C. with 5% CO2 for 7 days.
CellTiter-Glo® 3D was added to b) 384-well cell culture plate at 20 μL/well. The plate was shaken at 320 rpm in the dark for 20 min, and incubated at room temperature in the dark for 2 h. The luminescence values were read using an Envision multi-mode microplate reader.
The inhibition rates of the compounds at different concentrations were calculated in Excel, and then inhibition curves were plotted and relevant parameters including minimum inhibition rate, maximum inhibition rate and IC50 were calculated using GraphPad Prism software.

[3] = system: MIA PaCa-2 tumor cells; test: Anti-tumor pharmacodynamic evaluation, MIA PaCa-2 subcutaneous xenograft; format: in vivo; conditions: MIA PaCa-2 in nude mice
Method: 100 μL of a suspension containing 5×10^6 MIA PaCa-2 tumor cells was subcutaneously inoculated into the right posterior abdomens of nude mice. The health of the mice was monitored daily, and measurements were started when tumors grew to be palpable. The tumor volume was calculated as follows: 0.5×L×W^2, where L and W represent the length and width of the tumor, respectively. When the tumors grew to about 100 mm^3, the mice were randomized into groups. The mice were intragastrically administered a corresponding dose (50 mg/kg) of compound suspension in CMC-Na twice daily, and their general states were monitored at the same time. The tumors were measured 3 times a week, and the body weight was measured twice a week.

[4] = Day 21, 50 mg/kg intragastric twice daily

Compound | IC50 [1] [nM] | IC50 [2] [nM] | TV (mm^3) (tumor volume) Day 0 ([3]; Day 0 (at grouping), 50 mg/kg intragastric twice daily) | % TGI (tumor growth inhibition) [3, 4] [%] | TV (mm^3) (tumor volume) Day 21 [3, 4]
COCCOc1cc2c(N[C@H](C)c3cc(N)cc(C(F)(F)C(C)(C)O)c3)nc(C)nc2cc1OC [Example 74] | 3.1 | 6.5 | – | – | –
COCCOc1cc2c(N[C@H](C)c3cccc(C(F)(F)C(C)(C)O)c3F)nc(C)nc2cc1C#N [Example 89, (R)-4-((1-(3-(1,1-Difluoro-2-hydroxy-2-methylpropyl)-2-fluorophenyl)ethyl)amino)-6-(2-methoxyethoxy)-2-methylquinazoline-7-carbonitrile] | 6.7 | 130 | – | – | –
COCCOc1cc2nc(C)nc(N[C@H](C)c3cccc(C(F)(F)C(C)(C)O)c3F)c2cc1OCCOC [Example 86, (R)-1-(3-(1-((6,7-Bis(2-methoxyethoxy)-2-methylquinazolin-4-yl)amino)ethyl)-2-fluorophenyl)-1,1-difluoro-2-methylpropan-2-ol] | 4.4 | 11.8 | – | – | –
COCCOc1cc2c(N[C@H](C)c3cc(F)cc(C(F)(F)C(C)(C)O)c3)nc(C)nc2cc1OC [Example 80, (R)-1,1-Difluoro-1-(3-fluoro-5-(1-((7-methoxy-6-(2-methoxyethoxy)-2-methylquinazolin-4-yl)amino)ethyl)phenyl)-2-methylpropan-2-ol] | 6.2 | 53 | – | – | –
COCCOc1cc2c(N[C@H](C)c3cccc(C(F)(F)CO)c3)nc(C)nc2cc1OC [Example 85] | 4.1 | 39 | – | – | –
COc1cc2nc(C)nc(N[C@H](C)c3cc(N)cc(C(F)(F)F)c3)c2cc1OCCOC1CC1(F)F (stereo partly drawn) [Example 82, N—((R)-1-(3-Amino-5-(trifluoromethyl)phenyl)ethyl)-6-(2-(2,2-difluorocyclopropyloxy)ethoxy)-7-methoxy-2-methylquinazolin-4-amine] | 4.5 | 33 | – | – | –
COCCOc1cc2c(N[C@H](C)c3cc(N)cc(OC(F)(F)F)c3)nc(C)nc2cc1OC [Example 83, (R)—N-(1-(3-Amino-5-(trifluoromethoxy)phenyl)ethyl)-7-methoxy-6-(2-methoxyethoxy)-2-methylquinazolin-4-amine] | 15 | 187 | – | – | –
COCCOc1cc2c(N[C@H](C)c3cccc(C(F)(F)C(C)(C)O)c3F)nc(C)nc2cc1OC [Example 72, (R)-1,1-Difluoro-1-(2-fluoro-3-(1-((7-methoxy-6-(2-methoxyethoxy)-2-methylquinazolin-4-yl)amino)ethyl)phenyl)-2-methylpropan-2-ol] | 3.2 | 16.6 | 103 | 84.9 | 175
COCCOc1cc2c(N[C@H](C)c3cc(C(F)(F)C(C)(C)O)ccc3F)nc(C)nc2cc1OC [Example 79, (R)-1,1-Difluoro-1-(4-fluoro-3-(1-((7-methoxy-6-(2-methoxyethoxy)-2-methylquinazolin-4-yl)amino)ethyl)phenyl)-2-methylpropan-2-ol] | 19 | 419 | – | – | –
C#Cc1cc2nc(C)nc(N[C@H](C)c3cccc(C(F)(F)C(C)(C)O)c3F)c2cc1OCCOC1COC1 [Example 157, (R)-1-(3-(1-((7-Ethynyl-2-methyl-6-(2-(oxetan-3-yloxy)ethoxy)quinazolin-4-yl)amino)ethyl)-2-fluorophenyl)-1,1-difluoro-2-methylpropan-2-ol] | – | 15.8 | – | – | –
COc1cc2nc(C)nc(N[C@H](C)c3cccc(C(F)(F)C(C)(C)O)c3F)c2cc1OCCOC1COC1 [Example 92, (R)-1,1-Difluoro-1-(2-fluoro-3-(1-((7-methoxy-2-methyl-6-(2-(oxetan-3-yloxy)ethoxy)quinazolin-4-yl)amino)ethyl)phenyl)-2-methylpropan-2-ol] | – | 18.2 | – | – | –
COCCOc1cc2c(N[C@H](C)c3cccc(C(F)(F)C(C)(C)O)c3F)nc(C)nc2cc1OC1COC1 [Example 103] | – | 23.5 | – | – | –
C#Cc1cc2nc(C)nc(N[C@H](C)c3cc(N)cc(C(F)(F)C(C)(C)O)c3)c2cc1OCCOC [Example 163, (R)-1-(3-Amino-5-(1-((7-ethynyl-6-(2-methoxyethoxy)-2-methylquinazolin-4-yl)amino)ethyl)phenyl)-1,1-difluoro-2-methylpropan-2-ol] | – | 14.5 | – | – | –
COc1cc2nc(C)nc(N[C@H](C)c3cc(N)cc(C(F)(F)F)c3)c2cc1OCCOC1COC1 [Example 44, (R)—N-(1-(3-Amino-5-(trifluoromethyl)phenyl)ethyl)-7-methoxy-2-methyl-6-(2-(oxetan-3-yloxy)ethoxy)quinazolin-4-amine] | 4.4 | 25 | – | – | –
CCOc1cc2nc(C)nc(N[C@H](C)c3cccc(C(F)(F)C(C)(C)O)c3F)c2cc1OCCOC [Example 98, (R)-1-(3-(1-((7-Ethoxy-6-(2-methoxyethoxy)-2-methylquinazolin-4-yl)amino)ethyl)-2-fluor ophenyl)-1,1-difluoro-2-methylpropan-2-ol] | – | 12.8 | – | – | –
COCC(COC)Oc1cc2c(N[C@H](C)c3cc(N)cc(C(F)(F)C(C)(C)O)c3)nc(C)nc2cc1OC [Example 122] | – | 15.6 | – | – | –
